Assay results published in patent US11007206B2, “Cyclic boronic acid ester derivatives and therapeutic uses thereof” (Melinta Subsidiary Corp., priority 2012, dated 2021).
Values joined by “and” are separate entries in the source; they are usually repeats but may differ in a detail not shown here. Equal values may be shown once. Read-outs that look alike come from different tables or passages of the source.

Experiment: Plasma pharmacokinetics of Compound I after single intraperitoneal dose in Swiss-Webster mice (Example 1)
Type: in vivo
Details: for concentration at 4 h: samples m.p. 10.x = 10th time point (4.0 h)
Method: Example 1 provides a summary of three pharmacokinetic studies Compound I conducted in Swiss-webster mice. The pharmacokinetics of 5 mg/kg, 15 mg/kg and 50 mg/kg of Compound I via the intraperitoneal route were discussed.
Compound I was prepared using the method described in the U.S. Publication 2012/0040932 A1. 100 mg of Compound I was dissolved in 30% 1N NaOH to ˜pH 5.0 as a stock solution. Compound I was further diluted in 0.9% saline to achieve target concentrations.
The specifications for animals used on this study were as follows: • Species: Mouse • Strain: CFW (Swiss) • Gender: Female • Source: Harlan Laboratories (Livermore, Calif.) • Number of Animals: 33 for each dose • Body Weight Range: 18-22 g at the start of the study
After acclimation, mice were administered a single intraperitoneal dose of Compound I at 5, 15, and 50 mg/kg. Groups of three mice were sacrificed at 0.08, 0.16, 0.25, 0.33, 0.5, 0.75, 1.0, 2.0, 3.0, and 4.0 h after dosing. Blood samples (one sample per animal) were collected by cardiac puncture in a heparin containing tube. Blood samples were centrifuged within 5 min of collection at 12000 g for 5 min to obtain plasma. The plasma samples were stored on −80° C. until analyzed.
Compound I standard curves were prepared in plasma from 0.1 to 100 μg/mL. 50 μl aliquots of sample were placed in 1.5 mL microcentrifuge tubes. 20 μl of Compound II (10 μg/mL) was added as internal standard to each sample or standard. 20 μl of 30% trichloroacetic acid was then added to each sample or standard. The samples were mixed using a vortex mixer centrifuged for 10 min at 15,000 RPM using a tabletop centrifuge. The supernatant (approx. […]) was removed and added to 100 μl of water in a 96-well plate. The samples were mixed again using a vortex mixer. 10 μl of each sample was injected onto an HPLC-MS for quantification.
The HPLC-MS conditions for plasma analysis are as follows: • Column: Phenomenex Fusion-RP or equivalent reversed-phase column, 5 um, 50×2 mm. • Flow rate: 0.6 mL/min. • Mobile phase A: 0.1% formic acid in water. • Mobile phase B: 0.1% formic acid in acetonitrile. • Gradient: 5-60% B in 1.5 min. • Mass spectrometer: Negative ion mode with electrospray ionization. • MS/MS: Compound I-Q1-m/e=296, Q3-m/e=234. • Compound II-Q1-m/e=331, Q3-m/e=201.
Plasma concentrations were fit using a one compartment IV infusion model (WinNonlinVersion 5.3, Pharsight Corp, and Mountain View, Calif.).

[1] = Swiss-Webster mice, plasma, 5 mg/kg intraperitoneal
[2] = Swiss-Webster mice, plasma, 15 mg/kg intraperitoneal
[3] = Swiss-Webster mice, plasma, 50 mg/kg intraperitoneal
[4] = female, CFW (Swiss-Webster), mouse, ip, Swiss-Webster mice, plasma, 5 mg/kg intraperitoneal
[5] = female, CFW (Swiss-Webster), mouse, ip, Swiss-Webster mice, plasma, 15 mg/kg intraperitoneal
[6] = female, CFW (Swiss-Webster), mouse, ip, Swiss-Webster mice, plasma, 50 mg/kg intraperitoneal

Q: For `O=C(O)C[C@@H]1CC[C@H](NC(=O)Cc2cccs2)B(O)O1` [Compound I], which Linearity of pharmacokinetics (Swiss-Webster mice, dose range of 5 to 50 mg/kg intraperitoneal) is on record?
A: linear PK

Q: And the AUC [1]?
A: 3.1 µg·h/mL

Q: And the Cl [1]?
A: 1.61 L/h/kg

Q: And the AUC [2]?
A: 8.3 µg·h/mL

Q: And the Cl [2]?
A: 1.8 L/h/kg

Q: And the AUC [3]?
A: 31.4 µg·h/mL

Q: And the Cl [3]?
A: 1.6 L/h/kg

Q: And the Cmax [4]?
A: 8.26 µg/mL

Q: What about the half-life [4] of the same compound?
A: 9.6 min

Q: What about the Cmax [5] of the same compound?
A: 19.5 µg/mL

Q: What about the half-life [5] of the same compound?
A: 12 min

Q: And the Cmax [6]?
A: 67.1 µg/mL

Q: What about the half-life [6] of the same compound?
A: 15 min

Q: What about the concentration at 0.08 h (female, CFW (Swiss-Webster), mouse, plasma, ip, 5 mg/kg, mouse plasma, 5 mg/kg intraperitoneal, samples m.p. 1.x = 1st time point (0.08 h), individual animals, read-out: Calc. Conc. (plasma concentration)) of the same compound?
A: 5.58 µg/mL

Q: And the concentration at 0.5 h (female, CFW (Swiss-Webster), mouse, plasma, ip, 5 mg/kg, mouse plasma, 5 mg/kg intraperitoneal, samples m.p. 5.x = 5th time point (0.5 h), individual animals, read-out: Calc. Conc. (plasma concentration))?
A: 1.55 µg/mL

Q: What about the concentration at 4 h (female, CFW (Swiss-Webster), mouse, plasma, ip, 5 mg/kg, mouse plasma, 5 mg/kg intraperitoneal, individual animals, read-out: Calc. Conc. (plasma concentration)) of the same compound?
A: 0.00371 µg/mL

Q: What about the concentration at 0.08 h (female, CFW (Swiss-Webster), mouse, plasma, ip, 15 mg/kg, mouse plasma, 15 mg/kg intraperitoneal, samples m.p. 1.x = 1st time point (0.08 h), individual animals, read-out: Calc. Conc. (plasma concentration)) of the same compound?
A: 16.7 µg/mL

Q: And the concentration at 0.16 h (female, CFW (Swiss-Webster), mouse, plasma, ip, 15 mg/kg, mouse plasma, 15 mg/kg intraperitoneal, samples m.p. 2.x = 2nd time point (0.16 h), individual animals, read-out: Calc. Conc. (plasma concentration))?
A: 15.5 µg/mL

Q: And the concentration at 2 h (female, CFW (Swiss-Webster), mouse, plasma, ip, 15 mg/kg, mouse plasma, 15 mg/kg intraperitoneal, samples m.p. 8.x = 8th time point (2.0 h), individual animals, read-out: Calc. Conc. (plasma concentration))?
A: 0.126 µg/mL

Q: And the concentration at 4 h (female, CFW (Swiss-Webster), mouse, plasma, ip, 15 mg/kg, mouse plasma, 15 mg/kg intraperitoneal, individual animals, read-out: Calc. Conc. (plasma concentration))?
A: < 0 µg/mL

Q: And the concentration at 0.08 h (female, CFW (Swiss-Webster), mouse, plasma, ip, 50 mg/kg, mouse plasma, 50 mg/kg intraperitoneal, samples m.p. 1.x = 1st time point (0.08 h), individual animals, read-out: Calc. Conc. (plasma concentration))?
A: 34.8 µg/mL

Q: And the concentration at 0.16 h (female, CFW (Swiss-Webster), mouse, plasma, ip, 50 mg/kg, mouse plasma, 50 mg/kg intraperitoneal, samples m.p. 2.x = 2nd time point (0.16 h), 5x dil., individual animals, read-out: Calc. Conc. (plasma concentration))?
A: 58.9 µg/mL

Q: And the concentration at 0.25 h (female, CFW (Swiss-Webster), mouse, plasma, ip, 50 mg/kg, mouse plasma, 50 mg/kg intraperitoneal, samples m.p. 3.x = 3rd time point (0.25 h), 5x dil., individual animals, read-out: Calc. Conc. (plasma concentration))?
A: 64.2 µg/mL

Q: And the concentration at 0.75 h (female, CFW (Swiss-Webster), mouse, plasma, ip, 50 mg/kg, mouse plasma, 50 mg/kg intraperitoneal, samples m.p. 6.x = 6th time point (0.75 h), individual animals, read-out: Calc. Conc. (plasma concentration))?
A: 19.1 µg/mL

Q: What about the concentration at 3 h (female, CFW (Swiss-Webster), mouse, plasma, ip, 50 mg/kg, mouse plasma, 50 mg/kg intraperitoneal, samples m.p. 9.x = 9th time point (3.0 h), individual animals, read-out: Calc. Conc. (plasma concentration)) of the same compound?
A: 0.181 µg/mL

Q: What about the “Calc. Conc. (plasma concentration)” value (mouse plasma, 5 mg/kg intraperitoneal, samples m.p. 1.x = 1st time point (0.08 h), individual animals, 5 mg/kg) of the same compound?
A: 5.77 µg/mL and 4.84 µg/mL

Q: What about the “Calc. Conc. (plasma concentration)” value (mouse plasma, 5 mg/kg intraperitoneal, samples m.p. 2.x = 2nd time point (0.16 h), individual animals, 5 mg/kg) of the same compound?
A: 9.68 µg/mL and 7.41 µg/mL and 3.49 µg/mL

Q: What about the “Calc. Conc. (plasma concentration)” value (mouse plasma, 5 mg/kg intraperitoneal, samples m.p. 3.x = 3rd time point (0.25 h), individual animals, 5 mg/kg) of the same compound?
A: 9.08 µg/mL and 7.43 µg/mL and 3.8 µg/mL

Q: And the “Calc. Conc. (plasma concentration)” value (mouse plasma, 5 mg/kg intraperitoneal, samples m.p. 4.x = 4th time point (0.33 h), individual animals, 5 mg/kg)?
A: 3.37 µg/mL and 1.01 µg/mL and 3.73 µg/mL

Q: What about the “Calc. Conc. (plasma concentration)” value (mouse plasma, 5 mg/kg intraperitoneal, samples m.p. 5.x = 5th time point (0.5 h), individual animals, 5 mg/kg) of the same compound?
A: 1.87 µg/mL and 1.31 µg/mL

Q: What about the “Calc. Conc. (plasma concentration)” value (mouse plasma, 5 mg/kg intraperitoneal, samples m.p. 6.x = 6th time point (0.75 h), individual animals, 5 mg/kg) of the same compound?
A: 0.110 µg/mL and 0.872 µg/mL and 0.461 µg/mL

Q: And the “Calc. Conc. (plasma concentration)” value (mouse plasma, 5 mg/kg intraperitoneal, samples m.p. 7.x = 7th time point (1.0 h), individual animals, 5 mg/kg)?
A: 0.551 µg/mL and 0.213 µg/mL and 0.457 µg/mL

Q: What about the “Calc. Conc. (plasma concentration)” value (mouse plasma, 5 mg/kg intraperitoneal, samples m.p. 8.x = 8th time point (2.0 h), individual animals, 5 mg/kg) of the same compound?
A: 0.0898 µg/mL and 0.0404 µg/mL and 0.0440 µg/mL
